The source of these data is the Bradley open melting point set (2014).

Values joined by “and” are separate entries in the source; they are usually repeats but may differ in a detail not shown here. Equal entries are not always repeated.

Broadly, the melting point is the temperature, or range, at which the solid turns liquid.

For the compound `COc1cccc(O)c1` [3-methoxyphenol], the melting point was -18 °C.

`c1ccc2c(c1)Nc1ccccc1S2` [phenothiazine]: the melting point was 184 °C (3×) and 188 °C and 185 °C (2×).

On to `ICI` [diiodomethane], for which the melting point was determined as 6 °C.

As to `O=C(c1ccccc1)c1c(F)c(F)c(F)c(F)c1F` [(Pentafluorophenyl)(phenyl)methanone], the melting point was 37.5 °C.

`Nc1ccc(S(=O)(=O)Nc2ccccn2)cc1` [Sulfapyridine] displayed a melting point of 192 °C.

`CC(C)NCC(O)COc1cccc2ccccc12` (stereo not given) [propranolol] returned a melting point of 162 °C.

In the case of `O=c1[nH]c(=O)n([C@H]2C[C@H](O)[C@@H](CO)O2)cc1F` [Floxuridine], the melting point came to 150 °C.

In the case of `O=C(O)c1c(F)c(F)c(F)c(F)c1C(=O)O` [tetrafluorophthalic acid], the melting point amounted to 156 °C.

Compound `Cc1c(C2(c3cc(C(C)C)c(O)c(Br)c3C)OS(=O)(=O)c3ccccc32)cc(C(C)C)c(O)c1Br` [bromothymol blue] yielded a melting point of 201 °C.

For the compound `CC(CC(=O)O)C(=O)O` (stereo not given) [2-Methylsuccinic acid], the melting point is 111 °C.

For the compound `CC(C)CCC[C@@H](C)[C@H]1CC[C@H]2[C@@H]3CC=C4C[C@@H](O)CC[C@]4(C)[C@H]3CC[C@]12C` [Cholesterol], the melting point was 148 °C.

`BrCCCBr` [1,3-dibromopropane] gave a melting point of -34 °C.

Take `Cc1nc(C)c(C)nc1C` [Tetramethylpyrazine]: the melting point is 85 °C.

As to `COc1ccc(N=C=S)cc1` [4-methoxyphenyl isothiocyanate], the melting point stood at 19 °C.

`Nc1ccn([C@H]2CC[C@@H](CO)O2)c(=O)n1` [Zalcitabine] yielded a melting point of 212 °C.

`NS(=O)(=O)c1cc(C(=O)O)c(NCc2ccco2)cc1Cl` [furosemide]: the melting point was 206 °C (2×) and 208 °C and 204 °C (2×).

Regarding `COc1ccc(CBr)c(Cl)c1` [2-chloro-4-methoxybenzyl bromide], the melting point stood at 57 °C.

The compound `COc1cccc(OC)c1C(C)=O` [2',6'-dimethoxyacetophenone] returned a melting point of 70 °C.

As to `C=Cc1cccc(C)c1` [3-methylstyrene], the melting point was -82 °C.

Compound `CC(C)(C)C(N)=S` [2,2,2-trimethylthioacetamide] registered a melting point of 115 °C.

As for `O=C(O)CCc1ccccc1` [3-phenylpropionic acid], the melting point was 49 °C.

`c1ccc2ccccc2c1` [Naphthalene] returned a melting point of 82 °C.

Consider `Clc1cc(Cl)nc(Cl)n1` [2,4,6-trichloropyrimidine], for which the melting point was found to be 23 °C.

`CCOC(=O)C=C1SC(N2CCCCC2)C(=O)N1CC` (stereo not given) displayed a melting point of 86 °C.

In turn, `O=C(Nc1ccc2cc(OC(=O)c3ccccc3)ccc2c1)c1ccccc1` [6-[(phenylcarbonyl)amino]naphthalen-2-yl benzoate] displayed a melting point of 227 °C.

As to `CCC(=O)O[C@]1(C(=O)SCF)[C@H](C)C[C@H]2[C@@H]3C[C@H](F)C4=CC(=O)C=C[C@]4(C)[C@@]3(F)[C@@H](O)C[C@@]21C` [Fluticasone Propionate], the melting point came out at 272 °C.

As to `CC(C)(C)OC(=O)N1CCc2ccccc21` [1-boc-indoline], the melting point turned out to be 47 °C.

For `Oc1ccc2c(c1)CCCC2` [5,6,7,8-tetrahydro-2-naphthol], the melting point is 62 °C.

As to `COc1ccc(C(=O)O)cc1Br` [3-bromo-4-methoxybenzoic acid], the melting point came out at 220 °C.

As to `C[C@]12CC[C@H]3[C@@H](CCC4=CC(=O)CC[C@@]43C)[C@@H]1CC[C@@H]2C(=O)CO` [Deoxycorticosterone], the melting point is 142 °C.

The compound `O=S(=O)(Cl)c1cc(S(=O)(=O)c2ccccc2)cs1` [4-(phenylsulfonyl)thiophene-2-sulfonyl chloride] yielded a melting point of 102 °C.

`C/C=C/CCCCC` [trans-2-octene] had a melting point of -88 °C.

In the case of `COP(=S)(OC)Oc1cc(Cl)c(Cl)cc1Cl` [Fenchlorphos], the melting point turned out to be 38 °C.

For the compound `C[C@@H](O)[C@H](N)C(=O)O` [L-Threonine], the melting point worked out at 256 °C.

In the case of `CP(C)CCP(C)C` [1,2-bis(dimethylphosphino)ethane], the melting point turned out to be 180 °C.

For the compound `N#CCC(=O)c1ccccc1` [benzoylacetonitrile], the melting point stood at 81 °C.

Take `C1CCOCC1` [Tetrahydropyran]: the melting point was -45 °C.

Take `Nc1ccc(S(=O)(=O)c2ccc(N)cc2)cc1` [4,4'-diaminodiphenyl sulfone]: the melting point was determined as 177 °C.

`CC(O)CC(C)(C)O` (stereo not given) [2-methyl-2,4-pentanediol] came in with a melting point of -40 °C.

For the compound `COc1cc(/C=C/CO)ccc1O` [coniferyl alcohol], the melting point stood at 76 °C.

In the case of `CN(C)C(=S)SSC(=S)N(C)C` [tetramethylthiuram disulfide], the melting point stood at 150 °C.

Regarding `Clc1ccc(-c2ccc(Cl)c(Cl)c2Cl)cc1Cl` [PCB-105], the melting point worked out at 117 °C.

`CC(=O)Oc1ccccc1C(N)=O` [o-acetoxybenzamide] displayed a melting point of 138 °C.

Compound `C#CC1(O)CCCCC1` [1-ethynyl-1-cyclohexanol] yielded a melting point of 33 °C.

In turn, `O=[N+]([O-])c1cc(Br)ccc1Br` [1,4-dibromo-2-nitrobenzene] registered a melting point of 84 °C.

`CC(N)C(=O)O` (stereo not given) [Alanine] had a melting point of 264 °C.

Take `O=P(O)(O)O` [orthophosphoric acid]: the melting point came out at 20 °C.

Compound `COC(=O)CC(N)=O` [methyl malonamate] returned a melting point of 39 °C.

`CCCCCCN` [Hexan-1-amine]: the melting point is -23 °C.

As to `Cc1ccccc1C(=O)O` [o-toluic_acid], the melting point was 105 °C.

Regarding `OCc1ccnc(Cl)c1` [2-chloropyridine-4-methanol], the melting point turned out to be 65 °C.

Consider `ClC(Cl)(Cl)Cl` [carbon tetrachloride], for which the melting point was -23 °C (4×) and -22.9 °C.

On to `COC(=O)c1cccc(O)c1` [methyl_3-hydroxybenzoate], for which the melting point worked out at 74 °C.

Turning to `O=[N+]([O-])c1ccc(O)c([N+](=O)[O-])c1` [2,4-dinitrophenol], the melting point was 107 °C.

Regarding `O=[N+]([O-])c1ccccc1C=Cc1ccc2ccccc2n1` [2-[2-(2-Nitro-phenyl)-vinyl]-quinoline], the melting point turned out to be 102 °C.

For `O=[N+]([O-])c1ccc(C=NO)cc1` [Benzaldehyde, 4-nitro-, oxime], the melting point was 130 °C.

In turn, `Nc1ccc(/N=N/c2ccc(/N=N/c3ccc(/N=N/c4ccc(/N=N/c5ccc(N)cc5)cc4)cc3)cc2)cc1` gave a melting point of 292 °C.

The compound `CCOC(=O)N1C(=O)c2ccccc2C1=O` [N-(ethoxycarbonyl)phthalimide] registered a melting point of 81 °C.

On to `O=C5\C=C3/[C@]([C@H]2CC[C@@]4([C@@H](OC(=O)CCc1ccccc1)CC[C@H]4[C@@H]2CC3)C)(C)CC5` [testosterone phenylpropionate], for which the melting point came out at 116 °C.

In turn, `CCOC(=O)c1ccc([N+](=O)[O-])cc1` [ethyl_4-nitrobenzoate] registered a melting point of 58 °C.

`CC(=O)OCC(OC(C)=O)C(OC(C)=O)C(OC(C)=O)C(OC(C)=O)C(=O)O` (stereo not given) [2,3,4,5,6-penta(acetyloxy)hexanoic acid] displayed a melting point of 110 °C.

For `c1ccc2c(-c3cccc4ccccc34)cccc2c1` [binaphthyl], the melting point came out at 154 °C.

The compound `CCOC(=O)/C=C/C(=O)OCC` [diethyl_fumarate] returned a melting point of 2 °C.

In turn, `O=C[C@H](O)[C@@H](O)[C@@H](O)CO` (racemic) [dl-arabinose] gave a melting point of 159 °C.

In turn, `CCCCCOc1ccc(/N=N/c2ccc(CCCC)cc2)cc1` [(E)-1-(4-butylphenyl)-2-[4-(pentyloxy)phenyl]diazene] came in with a melting point of 42 °C.

`CC(=O)c1ccc(Cl)c(Cl)c1` [3',4'-dichloroacetophenone] displayed a melting point of 74 °C.

Compound `CC(=O)Nc1ccc([N+](=O)[O-])cc1` [4'-nitroacetanilide] showed a melting point of 216 °C.

`Clc1ccc(Cl)c(Cl)c1` [1,2,4-Trichlorobenzene]: the melting point worked out at 17 °C.

In turn, `ClC/C=C\CCl` [cis-1,4-dichloro-2-butene] yielded a melting point of -48 °C.

On to `Cc1cc(/C=C2\SC(=Nc3ccccc3)N=C2O)c(C)n1-c1ccccn1` [OSM-S-51], for which the melting point turned out to be 277 °C.

Regarding `CCC(C(=O)NC(=O)NC(C)=O)c1ccccc1` (stereo not given) [acetylpheneturide], the melting point came out at 100 °C.

In turn, `Cc1ccc([N+](=O)[O-])cc1` [4-nitrotoluene] returned a melting point of 52 °C.

Compound `Nc1ccccc1-c1ccccc1` [2-aminobiphenyl] showed a melting point of 50 °C.

Regarding `Cc1ccc(CCc2ccc(C)cc2)cc1` [1,2-di(p-tolyl)ethane], the melting point was determined as 81 °C.

Compound `OC[C@H]1O[C@@H](Oc2ccc(O)cc2)[C@H](O)[C@@H](O)[C@@H]1O` [arbutin] yielded a melting point of 198 °C.

Take `O[C@@H]1CC[C@H](C[C@H]1OC)/C=C(C)[C@H]2OC(=O)[C@@H]4CCCCN4C(=O)C(=O)[C@]3(O)O[C@H]([C@H](C[C@@H](C)CC(C)=C[C@@H](CC=C)C(=O)C[C@H](O)[C@H]2C)OC)[C@H](C[C@H]3C)OC` [Tacrolimus]: the melting point was determined as 126 °C.

`NC(=O)c1cccc(N)c1` [m-aminobenzamide]: the melting point stood at 115 °C.

On to `O=C(Nc1ccccc1)Nc1ccccc1` [1,3-DIPHENYLUREA], for which the melting point was 232 °C.

In the case of `O=C1CCCCC1` [cyclohexanone], the melting point is -29 °C and -27.9 °C.

The compound `CCOC(=O)n1ccn(C)c1=S` [ethyl 3-methyl-2-thionoimidazoline-1-carboxylate] showed a melting point of 124 °C.

In turn, `O=C(O)C(Cl)Cl` [dichloroacetic acid] showed a melting point of 10 °C.

The compound `COc1cc(Cc2cnc(N)nc2N)cc(OC)c1OC` [trimethoprim] gave a melting point of 200 °C.

In turn, `CC1=CCCC1` [1-methylcyclopentene] gave a melting point of -142 °C.

Take `c1ccc(N(c2ccccc2)c2ccccc2)cc1` [triphenylamine]: the melting point was 127 °C.

Consider `CN(C)CCC=C1c2ccccc2CCc2ccccc21` [amitriptyline], for which the melting point amounted to 196 °C.
